Data from US20210254056A1, “IDENTIFICATION AND TARGETED MODULATION OF GENE SIGNALING NETWORKS” (CAMP4 THERAPEUTICS CORPORATION, priority 2017, published 2021).

Tested on: hepatocytes
Assay: RNA-seq of hepatocytes treated with Phase III failure compounds
Experimental: RNA-seq was performed to determine the effects of the compounds on hepatocytes.
Significance was determined by the criteria of FPKM≥0.5, a log 2(fold-change)≥1, and a […].

SMILES: CCCCC(C(=O)c1ccccc1)N1CCCC1 (stereo not drawn) [a-PHP]
- significant changes in gene expression: not observed to cause any significant changes in gene expression
- significant modulation of expression of any of the genes analyzed (RNA-seq, p≤0.05, hepatocytes): not observed to significantly modulate expression

SMILES: COc1nc(N)nc2c1ncn2[C@@H]1O[C@H](COP(=O)(N[C@@H](C)C(=O)OCC(C)(C)C)Oc2cccc3ccccc23)[C@@H](O)[C@@]1(C)O (stereo partly drawn) [bms-986094]
- Number (#) of genes having significantly changed expression: 2079

SMILES: COc1cc(Nc2ncc(F)c(Nc3ccc4c(n3)N(COP(=O)(O)O)C(=O)C(C)(C)O4)n2)cc(OC)c1OC [fostamatinib]
- significant modulation of expression of disease genes (RNA-seq, q≤0.05, hepatocytes, genes in the value or listed in the block): significantly (q≤0.05) modulate expression
- effect on disease gene expression (RNA-seq, hepatocytes): effect on expression of too many disease genes
- RNA-seq results: A1BG expression (gene A1BG, hepatocytes): 0.01
- RNA-seq results: AGTR1 expression (gene AGTR1, hepatocytes): 0.25
- RNA-seq results: AGXT expression (gene AGXT, hepatocytes): 0.45
- RNA-seq results: AHI1 expression (gene AHI1, hepatocytes): 0.39
- RNA-seq results: AMPD3 expression (gene AMPD3, hepatocytes): −0.90
- RNA-seq results: AMT expression (gene AMT, hepatocytes): −0.28
- RNA-seq results: ANGPTL3 expression (gene ANGPTL3, hepatocytes): 0.24
- RNA-seq results: ANKS4B expression (gene ANKS4B, hepatocytes): 0.49
- RNA-seq results: ANKS6 expression (gene ANKS6, hepatocytes): 0.03
- RNA-seq results: ANPEP expression (gene ANPEP, hepatocytes): 0.49
- RNA-seq results: AOC2 expression (gene AOC2, hepatocytes): 0.64
- RNA-seq results: APOA2 expression (gene APOA2, hepatocytes): −0.31
- RNA-seq results: APOA5 expression (gene APOA5, hepatocytes): 0.97
- RNA-seq results: APOB expression (gene APOB, hepatocytes): 1.87
- RNA-seq results: COG5 expression (gene COG5, hepatocytes): −0.12
- RNA-seq results: COG6 expression (gene COG6, hepatocytes): 0.18
- RNA-seq results: COL1A1 expression (gene COL1A1, hepatocytes): −0.09
- RNA-seq results: COX6A1 expression (gene COX6A1, hepatocytes): 0.29
- RNA-seq results: CP expression (gene CP, hepatocytes): −0.16
- RNA-seq results: CPS1 expression (gene CPS1, hepatocytes): −0.56
- RNA-seq results: CPT1A expression (gene CPT1A, hepatocytes): −0.03
- RNA-seq results: CPT2 expression (gene CPT2, hepatocytes): 0.28
- RNA-seq results: CROT expression (gene CROT, hepatocytes): 0.19
- RNA-seq results: CSPP1 expression (gene CSPP1, hepatocytes): −0.09
- RNA-seq results: CTC1 expression (gene CTC1, hepatocytes): 0.04
- RNA-seq results: CTDSP2 expression (gene CTDSP2, hepatocytes): −0.06
- RNA-seq results: CTH expression (gene CTH, hepatocytes): 0.15
- RNA-seq results: CTNS expression (gene CTNS, hepatocytes): 0.1
- RNA-seq results: CTSF expression (gene CTSF, hepatocytes): 0.07
- RNA-seq results: CTSK expression (gene CTSK, hepatocytes): −0.13
- RNA-seq results: CYB5A expression (gene CYB5A, hepatocytes): −0.01
- RNA-seq results: CYB5R3 expression (gene CYB5R3, hepatocytes): 0.05
- RNA-seq results, CYP2B6 expression (gene CYP2B6, hepatocytes): 0.55
- RNA-seq results: CYP2B6 expression (gene CYP2B6, hepatocytes): −0.04
- RNA-seq results, CYP2C19 expression (gene CYP2C19, hepatocytes): 0.61
- RNA-seq results: CYP2C19 expression (gene CYP2C19, hepatocytes): −0.79
- RNA-seq results, CYP2D6 expression (gene CYP2D6, hepatocytes): 0.31
- RNA-seq results: CYP2D6 expression (gene CYP2D6, hepatocytes): −0.01
- RNA-seq results, CYP3A4 expression (gene CYP3A4, hepatocytes): 3.59
- RNA-seq results: CYP3A4 expression (gene CYP3A4, hepatocytes): 0.18
- RNA-seq results, CYP7B1 expression (gene CYP7B1, hepatocytes): 0.59
- RNA-seq results: CYP7B1 expression (gene CYP7B1, hepatocytes): −0.27
- RNA-seq results: CYP27A1 expression (gene CYP27A1, hepatocytes): −0.03
- RNA-seq results, CYP39A1 expression (gene CYP39A1, hepatocytes): 1.11
- RNA-seq results: CYP39A1 expression (gene CYP39A1, hepatocytes): −0.23
- RNA-seq results: DAO expression (gene DAO, hepatocytes): −0.06
- RNA-seq results: DBT expression (gene DBT, hepatocytes): −0.01
- RNA-seq results: DCDC2 expression (gene DCDC2, hepatocytes): −0.57
- RNA-seq results: DCXR expression (gene DCXR, hepatocytes): 0.23
- RNA-seq results: FABP1 expression (gene FABP1, hepatocytes): −0.33
- RNA-seq results: FADD expression (gene FADD, hepatocytes): 0.17
- RNA-seq results: FAM111A expression (gene FAM111A, hepatocytes): −0.14
- RNA-seq results: FAM111B expression (gene FAM111B, hepatocytes): 1.04
- RNA-seq results: FAN1 expression (gene FAN1, hepatocytes): 0.11
- RNA-seq results: FARS2 expression (gene FARS2, hepatocytes): −0.7
- RNA-seq results: FASLG expression (gene FASLG, hepatocytes): −0.31
- RNA-seq results: FGA expression (gene FGA, hepatocytes): −0.24
- RNA-seq results: FGD1 expression (gene FGD1, hepatocytes): 0.24
- RNA-seq results: FGFR2 expression (gene FGFR2, hepatocytes): −1.3
- RNA-seq results: FIG4 expression (gene FIG4, hepatocytes): −0.09
- RNA-seq results: FIS1 expression (gene FIS1, hepatocytes): 0.19
- RNA-seq results: FTCD expression (gene FTCD, hepatocytes): −0.37
- RNA-seq results: FTH1 expression (gene FTH1, hepatocytes): 0.34
- RNA-seq results: FUCA1 expression (gene FUCA1, hepatocytes): 0.04
- RNA-seq results: FXN expression (gene FXN, hepatocytes): −0.11
- RNA-seq results: G6PC3 expression (gene G6PC3, hepatocytes): 0.11
- RNA-seq results: G6PC expression (gene G6PC, hepatocytes): −0.55
- RNA-seq results: G6PD expression (gene G6PD, hepatocytes): 0.55
- RNA-seq results: GALK1 expression (gene GALK1, hepatocytes): 0.19
- RNA-seq results: GALK2 expression (gene GALK2, hepatocytes): 0.04
- RNA-seq results: GALT expression (gene GALT, hepatocytes): −0.13
- RNA-seq results: GATA6 expression (gene GATA6, hepatocytes): −0.12
- RNA-seq results: GATM expression (gene GATM, hepatocytes): −0.13
- RNA-seq results: GBA expression (gene GBA, hepatocytes): 0.02
- RNA-seq results: GBE1 expression (gene GBE1, hepatocytes): −0.01
- RNA-seq results: GCH1 expression (gene GCH1, hepatocytes): 0.04
- RNA-seq results: GCKR expression (gene GCKR, hepatocytes): −0.15
- RNA-seq results: GCLC expression (gene GCLC, hepatocytes): 0.18
- RNA-seq results: GOSH expression (gene GOSH, hepatocytes): 0.18
- RNA-seq results: RRM2B (gene RRM2B, hepatocytes): 0.45
- RNA-seq results: RSAD1 (gene RSAD1, hepatocytes): 0.22
- RNA-seq results: SAMHD1 (gene SAMHD1, hepatocytes): −0.22
- RNA-seq results: SC5D (gene SC5D, hepatocytes): 0.22
- RNA-seq results: SCARB1 (gene SCARB1, hepatocytes): −0.40
- RNA-seq results: SCN9A (gene SCN9A, hepatocytes): −0.97
- RNA-seq results: SDCCAG8 (gene SDCCAG8, hepatocytes): 0.11
- RNA-seq results: SEPN1 (gene SEPN1, hepatocytes): −0.18
- RNA-seq results: SERAC1 (gene SERAC1, hepatocytes): −0.05
- RNA-seq results: SERPINA1 (gene SERPINA1, hepatocytes): 0.31
- RNA-seq results: SERPING1 (gene SERPING1, hepatocytes): 0.27
- RNA-seq results: SERPINI1 (gene SERPINI1, hepatocytes): 0.67
- RNA-seq results: SETBP1 (gene SETBP1, hepatocytes): −0.46
- RNA-seq results: SFXN4 (gene SFXN4, hepatocytes): 0.01
- RNA-seq results: SLC10A1 (gene SLC10A1, hepatocytes): 0.97
- RNA-seq results: SLC10A3 (gene SLC10A3, hepatocytes): −0.64
- RNA-seq results: SLC10A5 (gene SLC10A5, hepatocytes): 1.23
- RNA-seq results: SLC10A7 (gene SLC10A7, hepatocytes): −0.12
- RNA-seq results: SLC11A2 (gene SLC11A2, hepatocytes): −0.54
- RNA-seq results: SLC19A1 (gene SLC19A1, hepatocytes): −0.37
- RNA-seq results: SLC19A2 (gene SLC19A2, hepatocytes): −0.01
- RNA-seq results: SLC19A3 (gene SLC19A3, hepatocytes): 0.18
- RNA-seq results: SLC22A1 (gene SLC22A1, hepatocytes): 0.16
- RNA-seq results: SLC22A5 (gene SLC22A5, hepatocytes): −0.46
- RNA-seq results: SLC25A1 (gene SLC25A1, hepatocytes): −0.04
- RNA-seq results: SLC25A10 (gene SLC25A10, hepatocytes): 0.24
- RNA-seq results: SLC25A12 (gene SLC25A12, hepatocytes): −0.27
- RNA-seq results: SLC25A13 (gene SLC25A13, hepatocytes): 0.22
- RNA-seq results: SLC25A15 (gene SLC25A15, hepatocytes): 1.61
- RNA-seq results: SLC25A19 (gene SLC25A19, hepatocytes): 0.07
- RNA-seq results: SLC25A20 (gene SLC25A20, hepatocytes): 0.62
- RNA-seq results: SLC25A29 (gene SLC25A29, hepatocytes): −0.40
- RNA-seq results: SLC25A32 (gene SLC25A32, hepatocytes): −0.06
